Source: patent publication US11230526B1, “Cylcoalkenyl derivatives useful as agonists of the GPR120 and/or GPR40 receptors” (Janssen Pharmaceutica NV, priority 2018, dated 2022)
pEC50: −log10 of the molar value.

How the values were obtained:
[1] = target: T1, Human GPR120 short form (Homo sapiens, UniProt Q5NUL3); assay: Human GPR120 calcium flux assay, Procedure Calcium B (4200 cells/well); format: cell-based
T1 construct: expressed in transfected cells
T1 sequence (Q5NUL3 1-361): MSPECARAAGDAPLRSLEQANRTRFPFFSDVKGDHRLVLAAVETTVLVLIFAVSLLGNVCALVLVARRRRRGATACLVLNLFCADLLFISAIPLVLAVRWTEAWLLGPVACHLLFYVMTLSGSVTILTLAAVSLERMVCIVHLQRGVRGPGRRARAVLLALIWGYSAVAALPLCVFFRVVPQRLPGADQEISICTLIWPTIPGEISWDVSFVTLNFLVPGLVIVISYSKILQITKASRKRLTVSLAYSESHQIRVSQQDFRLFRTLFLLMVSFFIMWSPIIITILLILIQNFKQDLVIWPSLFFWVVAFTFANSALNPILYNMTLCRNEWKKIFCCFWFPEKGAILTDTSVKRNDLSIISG
Experimental: Human GPR120 in Calcium Flux Assay
These cells are first loaded with the Ca^+2 sensitive dye, Fluo-4 NW. Upon stimulation, intracellular released Ca^+2 can bind to the dye and alter its fluorescence intensity. This increase in fluorescence signal, and thus the flux in intracellular [Ca^2+], is detected and quantitated by fluorescence imaging using a FLIPR reader. The effect of the agonist is measured as a function of concentration and used to calculate an EC50 based upon a response curve.
In this procedure 4200 cells/well were employed.
A Human GPR120 clone (Genbank accession number NM_001195755.1) was placed into the pcDNA3.1 mammalian expression vector carrying the neomycin resistance gene. A stable mammalian cell was generated by placing the above clone into a HEK293 background. […] Cells were split 2 times a week to keep the cells in the log-phase growth. […]
The assay was performed on a FLIPR plate reader using the following parameters. Baseline was read for 10 seconds at 1 sec intervals. The program was set to transfer 10 μL of ligand from compound plate to cell plate after baseline reading. Aspiration was executed at: 10 μL/sec speed, 4.6 μL height, Dispensing was executed at: 30 μL/sec speed, 45 μL height. After compound addition, each well was read for 300 sec, with measurements collected at 1 sec intervals.
The kinetic data from the FLIPR was based upon a 5 minute window for data collection. The fluorescence of each sample well was used for individual calculations of a normalized RFU value, which was defined as maximum response minus the minimum response. The normalized fluorescence reading (RFU) was calculated as follows: RFU=Fmax−Fmin
The Fitting Equation was: Y=Bottom+(Top-Bottom)/(1+10^((Log EC50−X)*HillSlope)), where X is the log of the concentration and Y is the response.

[2] = target: T2, human GPR40 (Homo sapiens, UniProt O14842); assay: GPR40 calcium flux assay, human GPR40; format: cell-based; settings: HEK293 cells stably expressing GPR40; table does not say human or rat
T2 construct: expressed in transfected cells
T2 sequence (O14842 whole entry): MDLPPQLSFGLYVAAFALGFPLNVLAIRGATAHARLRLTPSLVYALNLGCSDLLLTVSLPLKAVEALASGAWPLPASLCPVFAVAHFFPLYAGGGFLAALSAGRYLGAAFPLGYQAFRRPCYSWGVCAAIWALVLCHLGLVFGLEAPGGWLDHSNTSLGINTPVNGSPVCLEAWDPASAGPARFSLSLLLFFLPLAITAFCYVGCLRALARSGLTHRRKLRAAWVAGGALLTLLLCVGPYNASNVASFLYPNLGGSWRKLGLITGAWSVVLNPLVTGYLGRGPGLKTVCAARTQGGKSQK
Experimental: Compounds were tested in a calcium flux assay using transfected HEK293 cells stably expressing either human GPR40 or rat GPR40. Human GPR40 expressing cells were cultured in DMEM−High Glucose media supplemented with 10% fetal bovine serum, 1×L-Glutamine, 1×Penicillin/Streptomycin and 500 μg/mL G418. Rat GPR40 expressing cells were cultured in DMEM−High Glucose media supplemented with 10% fetal bovine serum and 1 μg/mL puromycin. Cells were plated into poly-D-lysine coated 384-well plates and cultured overnight in a 37° C. humidified tissue culture incubator under 5% CO2/[…] atmosphere.
On the day of the experiment, the culture media was replaced with assay buffer (HBSS, 20 mM HEPES, 0.1% BSA) and the cells incubated at 37° C. for 1 h. Calcium-sensitive fluorescent dye (Fluo 8 No-Wash Calcium Dye, ABD Bioquest) was then added and the cells incubated for another 30 min at 37° C. followed by 15 min at room temperature while protected from the light. The cell plate and a plate of diluted compounds of Formula (I) were loaded into a fluorescent plate reader that added compounds onto the cells while measuring the fluorescence intensity of each well. The plate reader recorded fluorescence intensity at 1 second intervals for 8 min and provided the data for analysis in an Excel format. EC50 values were calculated using Prism (GraphPad) software.

Row | SMILES | pEC50 [1] | pEC50 [2]
1 | COc1ccc(C2=C(COc3c(F)cc(CCC(=O)O)cc3F)CCC2)cn1 [Compound 221, 3-[3,5-difluoro-4-[[2-(6-methoxy-3-pyridyl)cyclopenten-1-yl]methoxy]phenyl]Propanoic Acid] | 6.80 | < 5.30
2 | Cc1cc(CCC(=O)O)cc(Cl)c1OCC1=C(c2ccc(F)cc2)CC(F)(F)C1 [Compound 229, 3-[3-chloro-4-[[4,4-difluoro-2-(4-fluorophenyl)cyclopenten-1-yl]methoxy]-5-methyl-phenyl]Propanoic Acid] | 5.98 | < 5.30
3 | O=C(O)CCc1ccc(OCC2=C(C3=CCCCC3)CCC2)cc1 [Compound 230, 3-[4-[[2-(cyclohexen-1-yl)cyclopenten-1-yl]methoxy]phenyl]Propanoic Acid] | 5.73 | < 5.30
4 | CCCC#CC1=C(COc2ccc(CCC(=O)O)cc2)CCC1 [Compound 233] | 6.12 | 5.53
5 | O=C(O)CCc1cc(Cl)c(OCC2=C(c3ccc(F)cc3)CCC2)c(Cl)c1 [Compound 235, 3-[3,5-dichloro-4-[[2-(4-fluorophenyl)cyclopenten-1-yl]methoxy]phenyl]Propanoic Acid] | 6.18 | < 5.30
6 | N#Cc1cc(OCC2=C(c3ccc(F)cc3)CCC2)ccc1CCC(=O)O [Compound 237, 3-[2-cyano-4-[[2-(4-fluorophenyl)cyclopenten-1-yl]methoxy]phenyl]Propanoic Acid] | < 5.30 | 6.03
7 | O=C(O)CCc1ccc(OCC2=C(c3ccc(F)cc3)CCC2)cc1C(F)(F)F [Compound 240, 3-[4-[[2-(4-fluorophenyl)cyclopenten-1-yl]methoxy]-2-(trifluoromethyl)phenyl]Propanoic Acid] | 6.41 | 6.73
8 | O=C(O)CCc1ccc(OCC2=C(c3ccccc3)CC(F)(F)C2)cc1C(F)(F)F [Compound 241] | 6.76 | 6.65
9 | O=C(O)CCc1ccc(OCC2=C(c3ccccc3)CC(F)(F)C2)cc1Cl [Compound 242, 3-[2-chloro-4-[(4,4-difluoro-2-phenyl-cyclopenten-1-yl)methoxy]phenyl]Propanoic Acid] | 6.84 | 6.08
10 | Cc1cc(Cl)ccc1C1=C(COc2ccc(CCC(=O)O)c(C(F)(F)F)c2)CCC1 [Compound 243, 3-[4-[[2-(4-chloro-2-methyl-phenyl)cyclopenten-1-yl]methoxy]-2-(trifluoromethyl)phenyl]Propanoic Acid] | < 5.30 | 7.05
11 | Cc1ccc(C2=C(COc3ccc(CCC(=O)O)c(C(F)(F)F)c3)CCC2)c(C)c1 [Compound 247, 3-[4-[[2-(2,4-dimethylphenyl)cyclopenten-1-yl]methoxy]-2-(trifluoromethyl)phenyl]Propanoic Acid] | 5.51 | 6.41
12 | O=C(O)CCc1ccc(OCC2=C(c3ccc(Cl)cc3)CC(F)(F)C2)cc1C(F)(F)F [Compound 248, 3-[4-[[2-(4-chlorophenyl)-4,4-difluoro-cyclopenten-1-yl]methoxy]-2-(trifluoromethyl)phenyl]Propanoic Acid] | 6.44 | 6.73

Results, then the compound that gave them:

Row | pEC50 [1] | pEC50 [2] | SMILES
13 | 5.33 | < 5.30 | O=C(O)CCc1cc(F)c(OCC2=C(c3ccco3)CCC2)c(F)c1 [Compound 209, 3-[3,5-difluoro-4-[[2-(2-furyl)cyclopenten-1-yl]methoxy]phenyl]Propanoic Acid]
14 | 6.52 | < 5.30 | Cc1ccc(C2=C(COc3ccc(CCC(=O)O)cc3C)CCC2)o1 [Compound 211, 3-[3-methyl-4-[[2-(5-methyl-2-furyl)cyclopenten-1-yl]methoxy]phenyl]Propanoic Acid]
15 | < 5.30 | < 5.30 | Cc1ccc(C2=C(COc3c(F)cc(CCC(=O)O)cc3F)CCC2)o1 [Compound 212, 3-[3,5-difluoro-4-[[2-(5-methyl-2-furyl)cyclopenten-1-yl]methoxy]phenyl]Propanoic Acid]
16 | 6.11 | < 5.30 | Cc1ccc(C2=C(COc3ccc(CCC(=O)O)cc3)CCC2)c(O)c1 [Compound 213]
17 | 7.05 | < 5.30 | COc1ccc(C2=C(COc3ccc(CCC(=O)O)cc3C)CCC2)cn1 [Compound 218, 3-[4-[[2-(6-methoxy-3-pyridyl)cyclopenten-1-yl]methoxy]-3-methyl-phenyl]Propanoic Acid]
18 | 5.95 | < 5.30 | CCOc1ccc(C2=C(COc3ccc(CCC(=O)O)c(C)c3C)CCC2)cn1 [Compound 219, 3-[4-[[2-(6-ethoxy-3-pyridyl)cyclopenten-1-yl]methoxy]-2,3-dimethyl-phenyl]Propanoic Acid]
19 | 6.80 | < 5.30 | COc1ccc(C2=C(COc3ccc(CCC(=O)O)c(C)c3C)CCC2)cn1 [Compound 220, 3-[4-[[2-(6-methoxy-3-pyridyl)cyclopenten-1-yl]methoxy]-2,3-dimethyl-phenyl]Propanoic Acid]
20 | 6.45 | < 5.30 | Cc1cc(CCC(=O)O)cc(F)c1OCC1=C(c2ccc(F)cc2)CCC1 [Compound 227, 3-[3-fluoro-4-[[2-(4-fluorophenyl)cyclopenten-1-yl]methoxy]-5-methyl-phenyl]Propanoic Acid]
21 | < 5.30 | < 5.30 | Cc1cc(CCC(=O)O)ccc1OCC1=C(c2ccco2)CC(F)(F)C1 [Compound 232, 3-[4-[[4,4-difluoro-2-(2-furyl)cyclopenten-1-yl]methoxy]-3-methyl-phenyl]Propanoic Acid]
22 | 5.94 | < 5.30 | Cc1ccc(C2=C(COc3ccc(CCC(=O)O)cc3)CCC2)cc1O [Compound 234]
23 | 5.90 | < 5.30 | Cc1cc(CCC(=O)O)cc(Cl)c1OCC1=C(c2ccc(F)cc2)CCC1 [Compound 236, 3-[3-chloro-4-[[2-(4-fluorophenyl)cyclopenten-1-yl]methoxy]-5-methyl-phenyl]Propanoic Acid]
24 | 6.36 | < 5.30 | Cc1cc(CCC(=O)O)ccc1OCC1=C(C2=CCOCC2)CCC1 [Compound 238, 3-[4-[[2-(3,6-dihydro-2H-pyran-4-yl)cyclopenten-1-yl]methoxy]-3-methyl-phenyl]Propanoic Acid]
25 | 6.39 | < 5.30 | Cc1c(CCC(=O)O)ccc(OCC2=C(C3=CCOCC3)CCC2)c1C [Compound 239, 3-[4-[[2-(3,6-dihydro-2H-pyran-4-yl)cyclopenten-1-yl]methoxy]-2,3-dimethyl-phenyl]Propanoic Acid]
26 | 5.65 | 6.10 | Cc1ccc(C2=C(COc3cc(C)c(CCC(=O)O)cc3F)CCC2)c(C)c1 [Compound 244, 3-[4-[[2-(2,4-dimethylphenyl)cyclopenten-1-yl]methoxy]-5-fluoro-2-methyl-phenyl]Propanoic Acid]
27 | 5.70 | 5.72 | Cc1ccc(C2=C(COc3ccc(CCC(=O)O)cc3)CCC2)c(C)c1 [Compound 245, 3-[4-[[2-(2,4-dimethylphenyl)cyclopenten-1-yl]methoxy]phenyl]Propanoic Acid]
28 | 5.50 | 6.45 | Cc1ccc(C2=C(COc3ccc(CCC(=O)O)c(Cl)c3)CCC2)c(C)c1 [Compound 246, 3-[2-chloro-4-[[2-(2,4-dimethylphenyl)cyclopenten-1-yl]methoxy]phenyl]Propanoic Acid]
